Test results reported in the supplement of paper PMC10307832.

Experiments:
Assay in all cases: relative viability (nuclei count vs DMSO), 5 days (fraction); higher = more cells survive
XMD13-2 = compound: C1CC1C(=O)NC2=NNC3=C2C=CC(=C3)C4=CC(=CC=C4)C(=O)NC5CC5 [XMD13-2]
In short: (§1)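 For viability, nuclei in each treated well were divided by nuclei in vehicle wells and the median across plates was taken. Lung cancer cell lines in 1536-well plates were pinned with five library-drug doses (not always all listed) spaced by √10, cultured 5 days without medium change, and imaged at 4× after Hoechst staining, with plates passing only at control CV below 25% and at least one doubling.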

ALW-II-49-7 = compound: Cc1ccc(C(=O)Nc2cccc(C(F)(F)F)c2)cc1Nc1cncc(C(N)=O)c1 [ALW-II-49-7]
In short: as §1

Dasatinib = compound: Cc1nc(Nc2ncc(C(=O)Nc3c(C)cccc3Cl)s2)cc(N2CCN(CCO)CC2)n1 [Dasatinib]
In short: as §1

Cell Line	relative viability (XMD13-2; 0.05 µM)	relative viability (XMD13-2; 0.1581 µM)	relative viability (XMD13-2; 0.5 µM)	relative viability (XMD13-2; 1.581 µM)	relative viability (XMD13-2; 5 µM)	relative viability (ALW-II-49-7; 0.08 µM)	relative viability (ALW-II-49-7; 0.253 µM)	relative viability (ALW-II-49-7; 0.8 µM)	relative viability (ALW-II-49-7; 2.53 µM)	relative viability (ALW-II-49-7; 8 µM)	relative viability (Dasatinib; 0.005 µM)	relative viability (Dasatinib; 0.01581 µM)	relative viability (Dasatinib; 0.05 µM)	relative viability (Dasatinib; 0.075 µM, anchor plate)	relative viability (Dasatinib; 0.1581 µM)	relative viability (Dasatinib; 0.5 µM)
NCI-H1793	1.27	0.721	1.07	0.977	1.12	0.984	0.894	0.757	0.836	0.934	0.635	0.543	0.537	0.391	0.457	0.414
A-427	1.12	0.921	1.01	0.904	0.744	0.962	1.02	0.952	1.01	0.93	0.983	0.889	0.811	0.698	0.634	0.623
ABC-1	1.02	0.873	1.01	0.745	0.472	0.938	0.999	0.923	0.973	0.941	0.905	0.862	0.785	0.641	0.564	0.654
IA-LM	0.967	0.982	0.977	0.87	0.883	0.939	0.74	0.744	0.504	0.305	1.01	0.994	1	–	0.781	0.564
NCI-H322M	1.05	0.918	0.893	0.911	1.08	0.879	1.08	0.957	0.906	0.805	0.892	0.827	0.526	0.257	0.319	0.216
